Reference: article PMC11345766, “Computational Design of Pore-Forming Peptides with Potent Antimicrobial and Anticancer Activities” (Journal of Medicinal Chemistry, 2024)
Ends that are not written are not given here.

Assays:
[1] = tested on: human red blood cells (HRBCs); details: read-out: Hemolysis toxicity (IC50); 1 h incubation
Experimental: To investigate the toxicity for normal human cells, all peptides were first screened against human red blood cells (HRBCs) using a hemolysis assay (Table 2 and Figure S4).
Hemolysis toxicity was tested against HRBCs. Blood samples, collected from the university hospital, were centrifuged twice at 700 × g and once at 1000 × g for 8 min at 4 °C to obtain erythrocyte pellets. Supernatants were always discarded, and pellets were resuspended in PBS (the same as the antimicrobial susceptibility assay). The final RBC suspension was 0.5% (v/v). Dilution series was prepared for concentrations 50 to 0.1 μM in a V-bottom 96-well plate, followed by the addition of RBC suspension. […] After 1 h of incubation at 37 °C, the well plate was centrifuged at 1000 × g for 10 min at 4 °C. The supernatant, collected in a flat-bottom well plate, was measured for OD415 using Tecan Microplate Reader Infinite F500.

[2] = tested on: HL-60, K-562, MCF-7 and HCT-116 cells; test: Viability by flow cytometry DiOC6/7AAD staining, effect of pH and media; assay type: cell-based, human; details: 10 μM, 1 h; RPMI, DMEM, PBS at pH 8, 7, 6 and ∼7.6
Experimental: To investigate the effect of pH and media on anticancer activity, we further tested the peptides against four cell lines, HL-60, K-562, and MCF-7, and the colon cancer cells HCT-116, cultured in three different media, namely, RPMI, DMEM, and PBS, each adjusted to three different pH values 8, 7, and 6, and additionally one case without pH adjustment (∼7.6) (Figure 6c). To avoid pH changes due to the natural buffering of the CO2-bicarbonate system used in cell culture, the peptides were tested at a concentration of 10 μM for only 1 h, as the cell lysis effect was already apparent within 30 min of exposure (Figure S9d).
Effects of pH and culture medium on the anticancer activity of peptides against acute myeloid leukemia HL-60, chronic myeloid leukemia K-562, breast adenocarcinoma MCF-7, and colon cancer cells HCT-116 cultured in three different media RPMI (#21875034, Gibco), DMEM (#LM-D1110/500, Biosera), and PBS adjusted to three different pH values 8, 7, and 6, and a medium without pH adjustment (∼7.6), were tested using flow cytometry DiOC6/7AAD (3,3-dihexyloxacarbocyanine iodide/7-amino-actinomycin D) staining assay, as described previously.[102] Media pH was adjusted twice, i.e., 1 day before the experiment and immediately before the experiment. Medium was supplemented with 10% heat-inactivated FBS, glutamine, sodium pyruvate, and antibiotics (100 U/mL penicillin and 100 μg/mL streptomycin). […] To determine cell viability, cells were incubated with DiOC6 (Thermo Fisher Scientific) and 7AAD (Thermo Fisher Scientific) for 15 min at 37 °C and cell viability was measured using a BriCyte E6 flow cytometer (Mindray); viable cells were considered as DiOC6-positive and 7AAD-negative.
The effect of pH on peptide activity in cancer cells was evaluated by the multiway ANOVA followed by Tukey post hoc test. Regarding the comparison of the effect of the medium, we analyzed the data from Figure 6c by comparing RPMI medium and DMEM of the same pH, and statistical significance was assessed using the multiway ANOVA followed by Tukey post hoc test. […]

[3] = tested on: MCF-7 cells; test: Immunoblotting of cleaved PARP and caspase-3; assay type: cell-based, human; details: 1 h treatment; media of different pH
Experimental: Furthermore, immunoblotting detection of cleaved PARP and caspase-3 markers confirmed the induction of apoptosis in MCF-7 cells by the peptides (Figure S10c).
MCF-7 cells were seeded at 2.5 × 10^5 cells/well in a 24-well plate 1 day before the experiment. Cells were treated with either peptides or PBS alone (negative control) and cultured in different media for 1 h. Cells were lysed using a buffer consisting of 1% SDS, 50 mM Tris–HCl (pH 6.8), and 10% glycerol with phosphatase and protease inhibitors. The protein concentration was determined by using the DC Protein Assay (Bio-Rad). Proteins were separated by SDS-PAGE and transferred to the PVDF membrane with a 0.45 μm pore size. The membranes were incubated with primary antibodies to detect cleaved PARP (no. 5625, 1:1000, Cell Signaling), total PARP (no. 9542, 1:2000, Cell Signaling), cleaved caspase-3 (no. 9664, 1:1000, Cell Signaling), or β-actin (no. 4970, 1:2000; Cell Signaling). Secondary HRP-linked antirabbit antibody (1:2000, Cell Signaling) was used to detect primary antibodies. Signal was detected using Clarity Western ECL Substrate (BioRad) and UVITEC Alliance (Uvitec).

[4] = tested on: A. baumannii Z13 (GEN, AMI, IMI, MER); details: A. baumannii / Z13 / GEN, AMI, IMI, MER / Prot. c; Prot. c
[5] = tested on: K. pneumoniae 4371 (GEN, AMI, IMI, MER); details: K. pneumoniae / 4371 / GEN, AMI, IMI, MER / Prot. c; Prot. c
[6] = tested on: E. coli AIC221; details: E. coli / AIC221 / Prot. d; Prot. d
[7] = tested on: E. coli AIC222 (COL); details: E. coli / AIC222 / COL / Prot. d; Prot. d
[8] = tested on: E. coli ATCC 11775; details: E. coli / ATCC 11775 / Prot. d; Prot. d
[9] = tested on: E. coli E1098 (GEN, AMI, IMI, MER); details: E. coli / E1098 / GEN, AMI, IMI, MER / Prot. c; Prot. c

H-HHHHLKKILKKLFQFINQLDNQLQDIHHHH-OH [LP40]
IC50 [1]: > 50 µM | Activity against cancer cells (cell viability) as a function of pH and medium [2]: pH-dependent activity | Cleaved PARP and caspase-3 (apoptosis) [3]: higher at pH 6

KKKKLKKILKKLFQFINQLDNQLQDIKQNK-NH2 [LP1]
MIC [4]: 4 µM | MIC [5]: 16 µM | Activity against cancer cells (cell viability) as a function of pH and medium [2]: pH-dependent activity

KKKKLKKILKKLFQFINQLDNQLQDIKKKK-NH2 [LP18]
MIC [6]: 1.6 µM | MIC [7]: 1.6 µM | MIC [8]: 1.6 µM | MIC [9]: 2 µM
